Source: CN113354616A, “二芳基-1,2,4-三唑类化合物及其制法和药物用途” (Institute of Materia Medica of CAMS and PUMC, priority 2020, dated 2021)

Tests used:
[1] = tested on: hyperuricemic mice (高尿酸血症小鼠); test: 实验例2: effect of TAZ-3-16 on lowering blood uric acid in hyperuricemic (HUA) model mice (hypoxanthine plus potassium oxonate, repeated stimulation); format: in vivo; details: HUA model ICR mice, intragastric, n=10, compared with model control
[2] = tested on: acute hyperuricemic mice (急性高尿酸血症小鼠); test: 实验例3: effect of TAZ-3-19 on lowering blood uric acid in acute hyperuricemia model mice (hypoxanthine plus potassium oxonate); format: in vivo; details: acute hyperuricemia ICR mice, intragastric, n=10, compared with model control

Clc1cc(-c2nc(-c3ccncc3)n[nH]2)cc(Cl)c1OCCCN1CCCCC1 [TAZ-3-16]
blood uric acid level ([1]; 0.5 mg/kg once daily for 2 days): 明显降低

CN1CCN(CCCOc2c(Cl)cc(-c3nc(-c4ccncc4)n[nH]3)cc2Cl)CC1 [TAZ-3-19]
decrease of peak blood uric acid ([2]; 0.625 mg/kg): 5.7%
decrease of peak blood uric acid ([2]; 1.25 mg/kg): 34.2%
decrease of peak blood uric acid ([2]; 2.5 mg/kg): 68.0%

Cc1nc(-c2ccc(OCC(C)C)c(C#N)c2)sc1C(=O)O [非布索坦, reference compound]
blood uric acid level ([1]; 1 mg/kg once daily for 2 days): 明显降低
